Assay results from patent US7863449B2, “Modulators of muscarinic receptors” (Vertex Pharmaceuticals Incorporated, priority 2004, dated 2011).

Columns and labels:
M1 muscarinic receptor = biological target: T1, M1 muscarinic receptor (Homo sapiens, UniProt P11229); assay: Functional mobilization of intracellular calcium (FLIPR), M1-CHO cells; assay type: cell-based; settings: for Emax: 100% efficacy is the maximum response obtained using Carbachol as a control; for M1 Activity: M1-CHO cells, FLIPR calcium mobilization
T1 construct: expressed in transfected cells; host or cells: CHO (M1-CHO)
T1 sequence (P11229 1-460): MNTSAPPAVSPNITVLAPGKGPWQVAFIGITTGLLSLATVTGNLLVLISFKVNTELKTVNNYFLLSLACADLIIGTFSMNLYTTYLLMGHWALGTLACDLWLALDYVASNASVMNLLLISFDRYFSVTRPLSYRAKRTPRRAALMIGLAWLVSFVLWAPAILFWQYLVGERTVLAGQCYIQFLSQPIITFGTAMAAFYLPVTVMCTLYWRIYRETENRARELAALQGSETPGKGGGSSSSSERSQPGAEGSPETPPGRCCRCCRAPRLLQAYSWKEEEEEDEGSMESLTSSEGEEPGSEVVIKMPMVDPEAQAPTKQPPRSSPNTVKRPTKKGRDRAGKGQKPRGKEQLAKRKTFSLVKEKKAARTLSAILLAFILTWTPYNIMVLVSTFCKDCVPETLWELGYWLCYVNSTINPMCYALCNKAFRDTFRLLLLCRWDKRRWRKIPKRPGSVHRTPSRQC
Method in brief: (§1)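 CHO cells expressing M1 or M4, loaded with Fluo-3 AM or Calcium 3 dye with 1 mM probenecid, 0.5% DMSO final. Agonist mode: compound added directly; antagonist mode: 15 min pre-incubation (or co-application) before carbachol at EC80. Fluorescence recorded 60 s on FLIPR.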

M4 muscarinic receptor = biological target: T2, M4 muscarinic receptor (Homo sapiens, UniProt P08173); assay: Functional mobilization of intracellular calcium (FLIPR), M4-CHO cells; assay type: cell-based; settings: for Emax: 100% efficacy is the maximum response obtained using Carbachol as a control; for M4 Activity: M4-CHO cells, FLIPR calcium mobilization
T2 construct: expressed in transfected cells; host or cells: CHO (M4-CHO)
T2 sequence (P08173 1-479): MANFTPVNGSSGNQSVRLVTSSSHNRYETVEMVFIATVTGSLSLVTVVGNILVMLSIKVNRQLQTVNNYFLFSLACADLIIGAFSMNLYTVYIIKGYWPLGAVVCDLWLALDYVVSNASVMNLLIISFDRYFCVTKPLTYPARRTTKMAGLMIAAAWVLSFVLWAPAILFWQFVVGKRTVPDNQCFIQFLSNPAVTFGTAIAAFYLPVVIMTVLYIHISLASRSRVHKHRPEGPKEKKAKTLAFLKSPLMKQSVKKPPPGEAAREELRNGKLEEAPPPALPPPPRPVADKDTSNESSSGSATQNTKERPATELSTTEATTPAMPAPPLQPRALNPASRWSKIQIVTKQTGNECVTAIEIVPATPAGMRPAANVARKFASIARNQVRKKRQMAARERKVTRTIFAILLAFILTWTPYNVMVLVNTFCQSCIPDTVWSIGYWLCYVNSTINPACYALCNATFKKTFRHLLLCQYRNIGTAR
Method in brief: as §1

SMILES | Emax (M1 muscarinic receptor) | M1 Activity (M1 muscarinic receptor) | Emax (M4 muscarinic receptor) | M4 Activity (M4 muscarinic receptor)
CC(=O)N1Cc2ccccc2C2(CCN(Cc3cccnc3)CC2)C1 [compound 274] | < 25% | + (activity was measured to be greater than 5.0 μM) | < 25% | + (activity was measured to be greater than 5.0 μM)
CCOC(=O)N1CCC(CN2CCC3(CC2)CN(C(=O)c2nc(C)oc2C)Cc2ccccc23)CC1 [compound 275] | 25 to 100% | +++ (activity was measured to be less than 1.0 μM) | 25 to 100% | +++ (activity was measured to be less than 1.0 μM)
COC(=O)c1ccc(CN2CCC3(CC2)CN(C(C)=O)Cc2ccccc23)cc1 [compound 276] | 25 to 100% | ++ (activity was measured to be from 1.0 μM to 5.0 μM) | 25 to 100% | ++ (activity was measured to be from 1.0 μM to 5.0 μM)
CCOC(=O)N1CCC(N2CCC3(CC2)OC(=O)c2ccc(C)cc23)CC1 [compound 277] | 25 to 100% | +++ (activity was measured to be less than 1.0 μM) | 25 to 100% | +++ (activity was measured to be less than 1.0 μM)
CCOC(=O)N1CCC(N2CCC3(CC2)CN(C(=O)C(C)C)Cc2ccccc23)CC1 [compound 279] | 25 to 100% | +++ (activity was measured to be less than 1.0 μM) | 25 to 100% | +++ (activity was measured to be less than 1.0 μM)
CCOC(=O)N1CCC(N2CCC3(CC2)CN(C(=O)NC2CCCC2)Cc2ccccc23)CC1 [compound 283] | 25 to 100% | +++ (activity was measured to be less than 1.0 μM) | 25 to 100% | +++ (activity was measured to be less than 1.0 μM)
CCOC(=O)N1CCC(CN2CCC3(CC2)CN(C(=O)C2CCC2)Cc2ccccc23)CC1 [compound 284] | 25 to 100% | +++ (activity was measured to be less than 1.0 μM) | 25 to 100% | +++ (activity was measured to be less than 1.0 μM)
CCOC(=O)N1CCC(N2CCC3(CC2)CN(C(C)=O)Cc2ccccc23)CC1 [compound 286] | 25 to 100% | +++ (activity was measured to be less than 1.0 μM) | 25 to 100% | +++ (activity was measured to be less than 1.0 μM)
CCCOC(=O)N1CC(CN2CCC3(CC2)CN(C(C)=O)Cc2ccccc23)C1 [compound 287] | < 25% | + (activity was measured to be greater than 5.0 μM) | < 25% | + (activity was measured to be greater than 5.0 μM)
CCOC(=O)N1CCC(CN2CCC3(CC2)CN(C(=O)N(C)C)Cc2ccccc23)CC1 [compound 288] | 25 to 100% | +++ (activity was measured to be less than 1.0 μM) | 25 to 100% | +++ (activity was measured to be less than 1.0 μM)
CC(=O)N1Cc2ccccc2C2(CCN(CC3CCN(C(=O)OC4CCC4)CC3)CC2)C1 [compound 291] | < 25% | + (activity was measured to be greater than 5.0 μM) | < 25% | + (activity was measured to be greater than 5.0 μM)
CC(=O)N1Cc2ccccc2C2(CCN(C3CCCCC3)CC2)C1 [compound 294] | 25 to 100% | +++ (activity was measured to be less than 1.0 μM) | 25 to 100% | +++ (activity was measured to be less than 1.0 μM)
CCOC(=O)N1CCC(N2CCC3(CC2)CN(C(=O)C2(C)CC2)Cc2ccccc23)CC1 [compound 295] | 25 to 100% | ++ (activity was measured to be from 1.0 μM to 5.0 μM) | < 25% | ++ (activity was measured to be from 1.0 μM to 5.0 μM)
CCCNC(=O)N1Cc2ccccc2C2(CCN(C3CCN(C(=O)OCC)CC3)CC2)C1 [compound 296] | 25 to 100% | +++ (activity was measured to be less than 1.0 μM) | 25 to 100% | +++ (activity was measured to be less than 1.0 μM)
CC(=O)N1Cc2ccccc2C2(CCN(Cc3ccccc3O)CC2)C1 [compound 297] | < 25% | + (activity was measured to be greater than 5.0 μM) | < 25% | + (activity was measured to be greater than 5.0 μM)
CC(=O)N1Cc2ccccc2C2(CCN(Cc3sc(C)nc3C)CC2)C1 [compound 301] | < 25% | + (activity was measured to be greater than 5.0 μM) | < 25% | + (activity was measured to be greater than 5.0 μM)
CC(=O)N1Cc2ccccc2C2(CCN(C3CCN(C(=O)O[C@H]4CCOC4)CC3)CC2)C1 [compound 302] | 25 to 100% | +++ (activity was measured to be less than 1.0 μM) | 25 to 100% | +++ (activity was measured to be less than 1.0 μM)
CCOC(=O)N1CCC(CN2CCC3(CC2)CN(C(=O)OC(C)C)Cc2ccccc23)CC1 [compound 309] | 25 to 100% | +++ (activity was measured to be less than 1.0 μM) | 25 to 100% | +++ (activity was measured to be less than 1.0 μM)
CCOC(=O)N1CCC(N2CCC3(CC2)CN(S(C)(=O)=O)Cc2ccccc23)CC1 [compound 311] | 25 to 100% | +++ (activity was measured to be less than 1.0 μM) | 25 to 100% | +++ (activity was measured to be less than 1.0 μM)
CC(=O)N1Cc2ccccc2C2(CCN(Cc3ccc(F)cc3F)CC2)C1 [compound 312] | < 25% | + (activity was measured to be greater than 5.0 μM) | < 25% | + (activity was measured to be greater than 5.0 μM)
CCOC(=O)N1CCC(N2CCC3(CC2)CN(CCC(C)C)Cc2ccccc23)CC1 [compound 313, ethyl 4-(2-isopentyl-2,3-dihydro-1H-spiro[isoquinoline-4,4′-piperidine]-1′-yl)piperidine-1-carboxylate] | > 100% | +++ (activity was measured to be less than 1.0 μM) | 25 to 100% | +++ (activity was measured to be less than 1.0 μM)
CCOC(=O)N1CCC(N2CCC3(CC2)OC(=O)c2ccccc23)CC1 [compound 314, ethyl 4-(3-oxo-3H-spiro[isobenzofuran-1,4′-piperidine]-1′-yl)piperidine-1-carboxylate] | 25 to 100% | +++ (activity was measured to be less than 1.0 μM) | 25 to 100% | +++ (activity was measured to be less than 1.0 μM)
CCOC(=O)N1CCC(CN2CCC3(CC2)CN(C(=O)OC2CCC2)Cc2ccccc23)CC1 [compound 315] | 25 to 100% | +++ (activity was measured to be less than 1.0 μM) | 25 to 100% | +++ (activity was measured to be less than 1.0 μM)
CCOC(=O)N1C2CCC1CC(N1CCC3(CC1)CN(S(=O)(=O)c1cccs1)Cc1ccccc13)C2 (stereo not shown) [compound 316] | 25 to 100% | +++ (activity was measured to be less than 1.0 μM) | 25 to 100% | +++ (activity was measured to be less than 1.0 μM)
CC(C)OC(=O)N1C2CCC1CC(N1CCC3(CC1)CN(C(=O)N(C)C)Cc1ccccc13)C2 (stereo not shown) [compound 317] | 25 to 100% | +++ (activity was measured to be less than 1.0 μM) | 25 to 100% | +++ (activity was measured to be less than 1.0 μM)
CCOC(=O)N1C2CCC1CC(N1CCC3(CC1)CN(C(=O)c1ccno1)Cc1ccccc13)C2 (stereo not shown) [compound 318] | 25 to 100% | +++ (activity was measured to be less than 1.0 μM) | 25 to 100% | +++ (activity was measured to be less than 1.0 μM)
CCOC(=O)N1C2CCC1CC(N1CCC3(CC1)CN(C(=O)C1CCC1)Cc1ccccc13)C2 (stereo not shown) [compound 319] | 25 to 100% | +++ (activity was measured to be less than 1.0 μM) | 25 to 100% | +++ (activity was measured to be less than 1.0 μM)
CCOC(=O)N1CC[C@H](CN2CCC3(CC2)CN(C(C)=O)Cc2ccccc23)C1 [compound 320] | 25 to 100% | +++ (activity was measured to be less than 1.0 μM) | 25 to 100% | +++ (activity was measured to be less than 1.0 μM)
